In patent US12428465B2, “Therapeutic peptides and methods for treating type 2 diabetes” (OP-T LLC, priority 2018, dated 2025):

Experiments:
ApoE-/- mice [1] = assay: LDL cholesterol in ApoE-/- mice; assay type: in vivo, mouse; conditions: 1 mg/kg IV once a week for 4 weeks
Protocol: In this study, six ApoE−/− mice received a normal chow diet from 0 to 20 weeks of age. At 20 weeks of age, three mice were randomly assigned to receive dose of 1 mg/kg of KGYY6 (6-mer-SEQ ID NO:29) by IV tail injection, once a week for a period of 4 weeks. Control mice received vehicle only.

ApoE-/- mice [2] = assay: Atherosclerotic changes in high fat diet ApoE-/- mice (Sudan IV en-face, Paigen method, trichrome); assay type: in vivo, mouse
Protocol: ApoE−/− mice were fed a high fat diet for 16 weeks. Mice were randomly assigned to receive dose of 1 mg/kg of KGYY6 (6-mer-SEQ ID NO:29) by IV tail injection, once a week for a period of 4 weeks. Control mice received vehicle only. Atherosclerosis was investigated by several methods. […] FIG. 28A is an image of KGYY6 treated aortic en-face Sudan IV staining and FIG. 28B is an image of control (untreated) aortic en-face Sudan staining.
Further, measurement of plaque area and morphology was performed using the Paigen method. This method obtains sequential 5 μm aortic cross sections from the aortic root beginning at the valve leaflets into the ascending aorta. At 50 μm intervals, slides are stained after which the area of atherosclerotic lesion is measured. Individual plaque area measurements are plotted against the micrometer intervals and a curve is established, with the area under the curve (AUC) giving the total volume of plaque.

ApoE-/- mice [3] = assay: Glucose tolerance testing and serum insulin in high fat diet ApoE-/- mice; assay type: in vivo, mouse
Description: One example of a disease that is particularly amenable to treatment using a peptide of the present developments may be type 2 diabetes. In type 2 diabetes, glucose tolerance is reduced, insulin sensitivity is decreased, and plasma insulin levels are increased. Consequently, control of inflammatory cells and cell signaling via CD40-CD154 interaction may be able to be used to control, modulate, reduce and/or reverse type 2 diabetes symptoms that are characterized as by glucose intolerance, insulin resistance, and increased plasma insulin levels. Several murine models of T2D and/or atherosclerosis have been developed. For initial studies, ApoE−/− mice were selected due to their ability to develop type 2 diabetes from a high fat diet. Glucose tolerance and insulin testing were performed on all of the mice. The mice were administered the 6-mer peptide (SEQ ID NO:29) at a rate of 1 mg/kg weekly via I.V, injection and monitored. […] Thus, one embodiment of the present developments is a method to prevent type 2 diabetes in an individual at risk for developing type 2 diabetes, the method comprising administering to the individual a peptide to selectively bind to a CD40 expressing cell. In such an embodiment, the peptide may be selected from SEQ ID NOS: 3-9 and 24-30.
ApoE−/− mice were fed a 60% high fat diet (research diet) for 1 week. A select population of mice were then injected with 6-mer peptide at a dose of 1 mg/kg and others were untreated and tracked as controls. Glucose tolerance testing (GTT) was performed by fasting 6 hours, followed by intraperitoneal injection of 1 g/kg body weight glucose in water. Both blood glucose and blood serum insulin were measured at 0, 15 minutes, 30 minutes, 60 minutes, and 2 hours.

GLUT4 = assay: Western analysis of GLUT4 in adipose and muscle tissue of treated mice; assay type: in vivo, mouse; conditions: treated versus untreated mice
Description: GLUT4 is responsible for glucose uptake in response to insulin and known to have reduced expression in type 2 diabetes.

Th40 cells = assay: Cytokine production of splenic lymphocytes (Th40 cells) treated in vitro, flow cytometry; assay type: cell-based, mouse; conditions: splenic lymphocytes of ApoE-/- and C57BL/6 mice, 24 hours in vitro, varying concentrations
Protocol: Spleens from ApoE mice and C57BL/6 mice were processed for lymphocytes. ApoE−/− and C57BL/6 mice were fed a 60% high fat diet (research diet) for 1 week. Splenic lymphocytes were treated with 6-mer in vitro for 24 hours. Cells were placed in media overnight in the presence of varying concentrations of 6-mer peptides. The following morning. Brefeldin A was administered for 4 hours. All cells were stained for CD3, CD4, CD40 (Th40 cells) and measured by use of flow cytometry for their production of IL2, INFγ, and IL17a.

human B cells = conditions: cited from earlier work
NOD mice [4] = assay: Development of diabetes in NOD mice treated with CD154 peptides; assay type: in vivo, mouse; conditions: 25 ug (1 mg/kg) tail vein weekly from 6 weeks of age
Protocol: (§1) Peptides were designed based on the amino acid sequence of mouse CD154 protein (SEQ ID NO:1) in the SwissPro database. […] Weekly after the initial injection, another 25 ug of peptide (or 100 ul of saline in the case of the Control mice) was injected into the tail vein. At 10 weeks of age, mice were monitored for diabetes, as indicated by a blood glucose level greater than 250 mg/dL for three consecutive days. During this time, blood was also taken from the tail vein, or by sub-mandibular venal puncture, and the level of CD4+ and CD8+ cells determined by flow cytometry using antibodies for CD4 protein and CD8 protein.

NOD mice [5] = assay: CD4/CD8 ratio in blood of treated NOD mice by flow cytometry; assay type: in vivo, mouse; conditions: 25 ug (1 mg/kg) tail vein weekly
Protocol: as §1

NOD mice [6] = assay: Reversal of hyperglycemia in newly diabetic NOD mice; assay type: in vivo, mouse
Protocol: Six mice from Example 1 that were not treated were allowed to subsequently develop diabetes. These mice were injected intravenously with 100 ug of the 15-mer peptide. These mice were then given weekly injections of the 15-mer peptide into their tail veins, and their blood glucose levels monitored twice-weekly. The 15-mer peptide was administered for a total of ten weeks, after which the treatment was stopped.
(§2) At the onset of diabetes, six NOD mice were injected with […] of the 15-mer peptide, resulting in the reversal of hyperglycemia in 80% of the recipients. Six weeks after reversal of hyperglycemia, mice were sacrificed, and the pancreas removed for analysis. The pancreas was fixed, sectioned and then stained using an aldehyde/fuschsin stain that allows detection of insulin granules. Granulation of the tissue was scored as follows: 4=completely granulated; 3=75% of islet granulated; 2=50% of islet granulated, and peri-insulitis; 1=25% of islet granulated; 0=no insulin granules detected.

CD40+ T-cells = assay: Binding of FITC-labeled 15-mer peptide to Th40 cells, flow cytometry; set-up: species or system mouse; conditions: lymphocytes of 9 week old NOD mice
Protocol: Total lymphocytes were isolated from 9 week old NOD mice. The lymphocytes were incubated with anti-CD4, anti-CD8, anti-CD40 and an FITC-labeled 15-mer peptide, and then analyzed by flow cytometry. Cells were gated for CD4 (both CD4hi and CD4lo populations were included) and CD40 versus the 15-mer peptide.

B cells = assay: Binding of FITC-labeled 15-mer peptide to B cells, flow cytometry; set-up: species or system mouse; conditions: spleen B cells of NOD mice, 90% CD40 positive
Protocol: B cells were isolated from the spleens of NOD mice. Sorted MHC-II+ cells were purified from total lymphocytes. Cells were stained with FITC-labeled 15 mer peptide, anti-CD40, and B cell markers CD19 and CD21. MHC-II+ cells were gated for CD19+ and CD21+ and then 15-mer peptide versus CD40 antibody was measured.

blood cells = assay: Binding of biotin-conjugated 15-mer peptide to whole blood cells, HRP-avidin absorbance at 405 nm; set-up: species or system human; conditions: 1 ml whole blood
Protocol: 1 ml of whole blood was obtained from each individual and incubated with biotin-conjugated, 15-mer peptide. The cells were then exposed to horseradish peroxidase (HRP)-avidin, washed and the absorbance at 405 nm determined using a spectrophotometer.

NOD mice [7] = assay: Insulin granulation of the pancreas in NOD mice, aldehyde/fuschsin stain; assay type: in vivo, mouse; conditions: six weeks after reversal of hyperglycemia; versus irrelevant peptide
Protocol: as §2

ApoE deficient mice = assay: Atherosclerosis in ApoE deficient mice, lesser curvature of the aortic arch; assay type: in vivo, mouse; conditions: 1 mg/kg IV three times a week from 9 weeks of age, normal chow
Protocol: ApoE deficient mice on a normal chow diet were selected to receive a dose of 1 mg/kg of the 15-mer peptide (SEQ ID NO: 7) by IV tail injection, three times a week over a period of […], beginning at 9 weeks of age and also utilized a control. At 25 weeks, the animals were euthanized, weighed, and then had blood, spleen, and pancreas removed for analysis. The subjects were then perfused through cardiac puncture with 4% paraformaldehyde. Aortic arches were dissected, dehydrated in sucrose gradient and then flash frozen.
FIG. 17 provides an example of the lesser curvature of the aortic arch, defined proximally from the aortic outflow (AO). Of the segments seen in the trichrome stain, an intimal distance of […] was measured distally. The aortic-arch wall area subtended by this 2.5 mm stretch of the intima was calculated for each section of all mice, with maximal area of the inner-aortic-arch wall of each mouse used to compute averages per group. The luminal surface (L), aortic arch (AO), and innominate artery (I) are labelled in this FIG. 17.
Plaque was subdivided based on morphology of early lesions (observable as fatty streaks containing macrophage derived foam cells with varying degrees of lipid accumulation) compared with more advanced fibroatheromas (containing varying degrees of lipid or necrotic core and fibrous caps). […]

ApoE-/- mice [8] = assay: Existing atherosclerotic disease in ApoE-/- mice, plaque cap and core measurements; assay type: in vivo, mouse; conditions: 1 mg/kg IV once a week for 4 weeks from 20 weeks of age
Protocol: In this study, six ApoE−/− mice received a normal chow diet from 0 to 20 weeks of age. At 20 weeks of age, three mice were randomly assigned to receive dose of 1 mg/kg of KGYY15 (15-mer-SEQ ID NO:7) by IV tail injection, once a week for a period of 4 weeks. Control mice received vehicle only. After 4 weeks of treatment, animals were euthanized then perfused through cardiac puncture with 4% paraformaldehyde. Aortic arches were dissected in surcrose gradient and flash frozen. Approximately fifty, 8 um longitudinal sections were obtained per mouse. Slides were treated with trichrome stain and analyzed using cellSens software for measurements. Total plaque was measured including 2.5 mm lesser curvature and innominate artery.

[9] = Clot study of whole human blood in the presence of peptide; conditions: dosing levels similar to murine studies
Protocol: Whole human blood was administered the peptide in accordance with similar dosing levels to those used for murine studies.

[10] = high fat diet 16 weeks, 1 mg/kg IV once a week for 4 weeks
[11] = trichrome staining, Image Pro Plus analysis

## AKKGYY [KGYY6, 6-mer peptide from CD154]
ApoE-/- mice [1]
  reduction in LDL cholesterol values versus untreated mice: > 50%
ApoE-/- mice [2]; [10]
  lesion areas, en-face Sudan IV stain: significant reduction
  plaque volume (area under the curve, Paigen method): reduction
ApoE-/- mice [2]; [11]
  plaque composition: collagen: increased
  plaque composition: smooth muscle content: reduced
ApoE-/- mice [3]; 1 mg/kg
  insulin sensitivity compared to controls: significantly improved
  plasma insulin levels compared to controls: lowered
ApoE-/- mice [3]; 1 mg/kg weekly I.V.
  insulin resistance compared to controls: improve
ApoE-/- mice [3]; 1 mg/kg, GTT 1 g/kg glucose i.p. after 6 hours fasting
  glucose tolerance compared to controls: significantly increased
GLUT4
  expression of GLUT4 in muscle tissue: increased expression
  expression of GLUT4 in white adipose tissue: increase in expression
Th40 cells
  inflammatory cytokine production of IL2, INFγ, and IL17a: affects

## Cc1ccc(C(=O)Nc2ccc(S(=O)(=O)O)c3cc(S(=O)(=O)O)cc(S(=O)(=O)O)c23)cc1NC(=O)c1cccc(NC(=O)Nc2cccc(C(=O)Nc3cc(C(=O)Nc4ccc(S(=O)(=O)O)c5cc(S(=O)(=O)O)cc(S(=O)(=O)O)c45)ccc3C)c2)c1 [suramin]
Human B cells
  CD154-induced proliferation of human B cells: prevented

## VLQWAKKGYYTMKSN (VLQWAKKGYYTMKSK) [15-mer peptide, 15-mer peptide derived from the mouse CD154 protein]
NOD mice [4]
  development of diabetes (blood glucose greater than 250 mg/dL for three consecutive days): prevented the onset of diabetes
NOD mice [5]
  compromise of the immune system as determined by the CD4/CD8 ratio: did not result in compromise of the immune system
NOD mice [6]; 100 ug IV then weekly injections for ten weeks
  reversal of hyperglycemia in already diabetic mice: can reverse hyperglycemia
NOD mice [6]; six NOD mice injected with 100 ug/ml at the onset of diabetes
  recipients with reversal of hyperglycemia: 80%
NOD mice [6]; treatment stopped after ten weeks
  return of hyperglycemia after cessation of the treatment: ≤ 5 weeks
CD40+ T-cells
  CD40+ T-cells that bind the peptide: 90%
B cells
  B cells that bound the peptide: 8%
Blood cells
  peptide binding activity of blood cells, type-I diabetes patients versus non-diabetic controls: higher
NOD mice [7]
  insulin granules in the pancreas: preserved insulin granules in the majority of the mice
ApoE deficient mice
  total area of the 2.5 mm segment of the aortic-arch wall: substantially reduced
  total number of plaque (early lesions and advanced plaque): significantly decreased
ApoE-/- mice [8]
  average cap width (cap size): greater
  average core width (core size/plaque size): decreased
  cap to core ratio of advanced plaques: reduced
  number of individual early plaques and advanced plaques: reduced
[9]
  clotting of whole human blood: does not modify or change the clotting

## VLQWAKKGYYTMK [13-mer peptides, 13-mer peptide derived from the CD154 protein]
NOD mice [4]
  development of diabetes (blood glucose greater than 250 mg/dL for three consecutive days): significant effects on the development of diabetes
